How the values were obtained:
[1] = Solubility of ingredients in water noted during manufacturing; assay type: physicochemical; details: noted by Applicant during manufacturing
Excerpt: (§1) As such, a first heating step (to about 40 degrees Celsius) while stirring, together with the sequential addition of Allantoin followed by HPMC allowed to improve the manufacturing procedure. Propanediol was also shown to help solubilization of active ingredients in the mixture. […] Once applied on the skin, the alcohol rapidly evaporates and promotes adherence of the film forming agent (e.g., PVP) on the skin. The presence of alcohol also promotes evaporation of water. Finally, because the presence of sodium salt (saline) could interfere with active ingredients in the formulation, it is preferentially added at the end of the process.
as §1, with “the PVP (which forms a film)” for “the film forming agent (e.g., PVP)”, “also promoted” for “also promotes”, “it was” for “it is”, “process. […]” for “process.”

epidermis of eroded skin = details: topical; animals and human epidermis; cited from earlier work
[2] = molecular target: fibroblast tissue transglutaminase (Homo sapiens, UniProt P21980); details: in vitro and in vivo, topical, compared to controls; cited from earlier work
Sequence of fibroblast tissue transglutaminase (P21980 whole entry): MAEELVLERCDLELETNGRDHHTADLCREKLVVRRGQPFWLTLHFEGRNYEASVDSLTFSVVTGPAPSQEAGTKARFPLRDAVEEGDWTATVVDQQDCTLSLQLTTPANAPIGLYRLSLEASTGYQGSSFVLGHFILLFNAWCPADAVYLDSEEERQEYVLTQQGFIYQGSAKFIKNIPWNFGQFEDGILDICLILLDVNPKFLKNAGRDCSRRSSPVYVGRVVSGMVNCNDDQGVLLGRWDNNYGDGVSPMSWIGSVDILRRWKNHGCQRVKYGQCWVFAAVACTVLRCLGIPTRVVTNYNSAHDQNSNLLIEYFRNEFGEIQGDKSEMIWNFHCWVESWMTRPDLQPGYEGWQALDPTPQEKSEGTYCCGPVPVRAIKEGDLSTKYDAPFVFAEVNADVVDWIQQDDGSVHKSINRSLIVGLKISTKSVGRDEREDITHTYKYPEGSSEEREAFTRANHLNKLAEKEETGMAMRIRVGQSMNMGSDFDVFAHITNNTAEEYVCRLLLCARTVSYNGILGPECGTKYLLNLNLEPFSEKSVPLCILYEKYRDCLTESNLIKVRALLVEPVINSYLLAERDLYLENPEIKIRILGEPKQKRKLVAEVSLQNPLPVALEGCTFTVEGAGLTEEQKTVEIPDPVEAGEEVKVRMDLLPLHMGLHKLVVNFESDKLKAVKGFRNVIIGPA

| solubility in water [1] | Molecule | effect on the epidermis of eroded skin (barrier function, thickness of the stratum lucidum) (epidermis of eroded skin) | collagen cross-linking [2] |
| --- | --- | --- | --- |
| not very soluble in water | NC(=O)NC1NC(=O)NC1=O (stereo not shown) [Allantoin] | – | – |
| – | NCCCCN [putrescine, 1,4-diaminobutane] | increasing its barrier function as well as the thickness of the stratum lucidum | reduce collagen cross-linking in vitro and in vivo |
| not to be very soluble in water | Alpha Bisabolol | – | – |
